Assay results taken from US20210255193A1, “LYSINE REACTIVE PROBES AND USES THEREOF” (The Scripps Research Institute, priority 2017, published 2021).

Experiments:
[1] = biological target: T1, lysine residues in human cell proteomes (MDA-MB-231, Ramos, Jurkat) (Homo sapiens, UniProt Q9NVS9); test: isoTOP-ABPP lysine reactivity profiling (0.1 vs 1 mM probe 1); type: binding; conditions: PNPO K100; 1 mM vs 0.1 mM probe 1
T1 construct: endogenous in cells; host or cells: MDA-MB-231, Ramos, Jurkat lysates
T1 sequence (Q9NVS9 whole entry): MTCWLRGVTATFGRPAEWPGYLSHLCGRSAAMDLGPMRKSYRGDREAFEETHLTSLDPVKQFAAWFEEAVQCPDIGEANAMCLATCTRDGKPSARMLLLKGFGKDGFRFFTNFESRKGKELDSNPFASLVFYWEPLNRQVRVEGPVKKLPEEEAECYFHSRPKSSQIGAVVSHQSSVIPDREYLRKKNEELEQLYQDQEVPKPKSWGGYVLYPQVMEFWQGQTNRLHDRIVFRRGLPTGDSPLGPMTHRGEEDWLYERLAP
Experimental: (§1) STP-alkyne labeling and click chemistry. For concentration-dependent reactivity measurements by isoTOP-ABPP, 0.5 ml proteome aliquots were treated at ambient temperature with 1 mM STP-alkyne 1 (5 μl of 100 mM stock in DMSO) and 0.1 mM STP alkyne 1 (5 μl of 10 mM stock in DMSO), respectively. For competitive isoTOP-ABPP, after in vitro fragment treatment (detailed above), the samples were labeled for 1 h at ambient temperature with 0.1 mM STP-alkyne 1 (5 μl of 10 mM stock in DMSO). Samples were conjugated by copper-mediated azide-alkyne cycloaddition (CuAAC) to either the light (1 mM STP-alkyne or fragment treated) or heavy (0.1 mM STP-alkyne or DMSO treated) TEV tags (10 μl of 5 mM stocks in DMSO, final concentration=100 μM) using tris(2-carboxyethyl)phosphine hydrochloride
(§2) R value calculation and processing. The ratios of light and heavy MS1 peaks for each unique peptide were quantified with a CIMAGE software using default parameters (3 MS1 acquisitions per peak and signal to noise threshold set to 2.5). For reactivity measurements by isoTOP-ABPP, the R value was calculated from the ratio of MS1 peak areas, comparing the 1 mM STP alkyne sample (light TEV tag) with the 0.1 mM STP alkyne sample (heavy TEV tag). For competitive isoTOP-ABPP, the R value was calculated from the ratio of MS1 peak areas, comparing the DMSO treated sample (heavy TEV tag) with the compound treated sample (light TEV tag). […] Ratios for unique peptide entries are calculated for each experiment; overlapping peptides with the same modified lysine (for example, different charge states, MudPIT chromatographic steps or tryptic termini) are grouped together and the median ratio is reported as the final ratio (R). The peptide ratios reported by CIMAGE were further filtered to ensure the removal or correction of low-quality ratios in each individual data set. […]
(§3) Cross-data processing for reactivity profiling. For reactivity profiling, the median of biological replicates of the same condition and cell-line was calculated. For peptides containing several possible modified lysines, the lysine with the highest number of quantification events was used for analysis and the remaining, redundant peptides were reported as alternative modification sites. Peptides were required to be detected in at least one 1 mM vs 0.1 mM and one 0.1 mM vs 0.1 mM data set with the latter R value being smaller than 2.5. […] If the lysine was not detected in any soluble fraction, the R value from the membrane fraction was taken. Additionally, all membrane-only lysines with reactivity values were further required to have been detected in at least one 0.1 mM vs 0.1 mM membrane profiling experiment. […]
(§4) Here, the intrinsic reactivity of lysine residues was assessed in human cell proteomes. In brief, proteomes from three human cancer cell lines were treated (MDA-MB-231, Ramos, and Jurkat cells) with low vs high concentrations of probe 1 (0.1 vs 1 mM, n=4 per group) for 1 h and then analyzed the samples by isoTOP-ABPP, wherein high, medium, and low reactivity lysines were distinguished by their respective isotopic ratio values (R10:1<2, 2<R10:1<5, R10:1>5, respectively). […]

[2] = system: lysine residues in human cell proteomes (MDA-MB-231, Ramos, Jurkat); test: as above; type: binding
Experimental: as §1, §2, §3, §4

R10:1 lysine reactivity ratio [1]: 0.7
SMILES: C#CCCC(=O)Oc1c(F)c(F)c(S(=O)(=O)[O-])c(F)c1F.[Na+] [probe 1, reference compound]
selectivity for lysine modification over other amino acids ([2]; 1 mM probe): excellent selectivity for lysine modification over other amino acids
hyper-reactive lysines (R10:1 <2), total residues ([2]; 0.1 vs 1 mM probe 1, 1 h): 310
quantified lysines with R10:1 values = 10 (low intrinsic reactivity) ([2]; 0.1 vs 1 mM probe 1, 1 h): > 50%
quantified lysines with hyper-reactivity with probe 1 (R10:1 values <2) ([2]; 0.1 vs 1 mM probe 1, 1 h): < 10%
